The record followed here is US20150307520A1, “NOVEL HETEROARYL AND HETEROCYCLE COMPOUNDS, COMPOSITIONS AND METHODS THEREOF” (HUTCHISON MEDIPHARMA LIMITED, priority 2012, published 2015).

Holding throughout (format): biochemical
One test addresses p110β/p85α (Homo sapiens, UniProt P42338). The experiment in a line: Transcreener KINASE Assay, kinase inhibition of p110β/p85α. The note with it: for PI3Kβ IH % @ 1 uM: 1 uM test compound; for IC50: read-out: PI3Kβ IC50. A digest of the protocol:
(§1)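 ADP formation read by far-red competitive FP immunoassay (60 min RT detection step) after an 80 min RT kinase reaction; substrate added as a 30 uM PIP2/10 uM ATP solution (not final).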

In another test the target is p110γ (Homo sapiens, UniProt P48736). Nature of the test: Transcreener KINASE Assay, kinase inhibition of p110γ. The following applies: for PI3Kγ IH % @ 1 uM: 1 uM test compound; for IC50: read-out: PI3Kγ IC50. In a few lines:
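Homogeneous endpoint format using recombinant enzymes; ADP measured by far-red FP immunoassay after 80 min reaction and 60 min detection, both at room temperature.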

A further test concerns the target p110δ/p85α (Homo sapiens, UniProt O00329). Nature of the test: Transcreener KINASE Assay, kinase inhibition of p110δ/p85α. The note with it: for PI3Kδ IH % @ 1 uM: 1 uM test compound; for IC50: read-out: PI3Kδ IC50. In a few lines:
as §1

The target of another test is p110α/p85α (Homo sapiens, UniProt P42336). Nature of the test: Transcreener KINASE Assay, kinase inhibition of p110α/p85α. The note with it: 1 uM test compound. As to the method: PI3K kinases including p110α/p85α, p110δ/p85α and p110γ are purchased from Invitrogen, and p110β/p85α is from Millipore.
Primary screening data and IC50 values are measured using Transcreener™ KINASE Assay (Bellbrook, Catalog #3003-10K). […] It is a universal, homogenous, high throughput screening (HTS) technology using a far-red, competitive fluorescence polarization immunoassay based on the detection of ADP to monitor the activity of enzymes that catalyze group transfer reactions. Briefly, the Transcreener KINASE Assay is designed as a simple two-part, endpoint assay.
In the first step, the 25 ul kinase reaction is performed by preparing a reaction mixture containing 5 ul test compound (2% DMSO final concentration), 10 ul kinase, buffer (50 mM HEPES, 100 mM NaCl, 1 mM EGTA, 0.03% CHAPS, 3 mM MgCl2, and freshly supplemented 1 mM DTT), and 10 ul 30 uM PIP2/10 uM ATP. The plate is sealed and incubated for 80 min at room temperature. Next, 25 ul ADP detection mix is added per well. The plate is sealed again and incubated for 60 min at room temperature, and then measure fluorescence polarization by Tecan Infinite F500 Reader.
Data is analyzed and IC50s are generated using the add-in software for Microsoft Excel, Xlfit™ (version 2.0). IH %=(ADP amount under 2% DMSO-ADP amount under test compound)/ADP amount under 2% DMSO.

Chain of p110γ (P48736 whole entry): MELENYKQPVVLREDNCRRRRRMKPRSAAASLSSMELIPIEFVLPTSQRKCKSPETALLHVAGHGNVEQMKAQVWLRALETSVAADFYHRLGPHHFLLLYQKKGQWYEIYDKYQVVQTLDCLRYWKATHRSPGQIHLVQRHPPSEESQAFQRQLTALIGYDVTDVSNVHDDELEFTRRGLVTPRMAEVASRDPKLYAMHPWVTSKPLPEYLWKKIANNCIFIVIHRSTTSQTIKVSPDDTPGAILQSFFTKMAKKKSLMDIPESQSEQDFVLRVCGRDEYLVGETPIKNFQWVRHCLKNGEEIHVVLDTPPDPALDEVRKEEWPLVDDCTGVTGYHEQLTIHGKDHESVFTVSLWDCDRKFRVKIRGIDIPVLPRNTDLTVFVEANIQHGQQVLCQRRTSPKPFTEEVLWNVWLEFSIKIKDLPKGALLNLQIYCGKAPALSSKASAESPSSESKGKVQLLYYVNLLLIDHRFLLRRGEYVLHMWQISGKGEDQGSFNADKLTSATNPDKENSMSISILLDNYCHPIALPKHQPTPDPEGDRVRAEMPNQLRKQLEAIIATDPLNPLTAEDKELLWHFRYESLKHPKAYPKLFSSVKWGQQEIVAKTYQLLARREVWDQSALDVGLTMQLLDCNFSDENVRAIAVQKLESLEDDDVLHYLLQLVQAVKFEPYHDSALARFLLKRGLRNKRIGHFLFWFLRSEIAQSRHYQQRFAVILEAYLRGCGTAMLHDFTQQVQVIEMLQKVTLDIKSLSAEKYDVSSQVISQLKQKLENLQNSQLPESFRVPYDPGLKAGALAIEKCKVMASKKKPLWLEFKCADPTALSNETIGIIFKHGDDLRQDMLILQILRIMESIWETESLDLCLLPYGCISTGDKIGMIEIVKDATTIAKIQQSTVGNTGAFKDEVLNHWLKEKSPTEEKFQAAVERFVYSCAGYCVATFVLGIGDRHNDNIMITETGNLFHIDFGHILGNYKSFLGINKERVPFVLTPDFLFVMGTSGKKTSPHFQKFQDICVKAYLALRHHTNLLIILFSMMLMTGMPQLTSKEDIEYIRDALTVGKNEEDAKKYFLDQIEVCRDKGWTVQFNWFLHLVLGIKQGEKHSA
Chain of p110β/p85α (P42338 whole entry): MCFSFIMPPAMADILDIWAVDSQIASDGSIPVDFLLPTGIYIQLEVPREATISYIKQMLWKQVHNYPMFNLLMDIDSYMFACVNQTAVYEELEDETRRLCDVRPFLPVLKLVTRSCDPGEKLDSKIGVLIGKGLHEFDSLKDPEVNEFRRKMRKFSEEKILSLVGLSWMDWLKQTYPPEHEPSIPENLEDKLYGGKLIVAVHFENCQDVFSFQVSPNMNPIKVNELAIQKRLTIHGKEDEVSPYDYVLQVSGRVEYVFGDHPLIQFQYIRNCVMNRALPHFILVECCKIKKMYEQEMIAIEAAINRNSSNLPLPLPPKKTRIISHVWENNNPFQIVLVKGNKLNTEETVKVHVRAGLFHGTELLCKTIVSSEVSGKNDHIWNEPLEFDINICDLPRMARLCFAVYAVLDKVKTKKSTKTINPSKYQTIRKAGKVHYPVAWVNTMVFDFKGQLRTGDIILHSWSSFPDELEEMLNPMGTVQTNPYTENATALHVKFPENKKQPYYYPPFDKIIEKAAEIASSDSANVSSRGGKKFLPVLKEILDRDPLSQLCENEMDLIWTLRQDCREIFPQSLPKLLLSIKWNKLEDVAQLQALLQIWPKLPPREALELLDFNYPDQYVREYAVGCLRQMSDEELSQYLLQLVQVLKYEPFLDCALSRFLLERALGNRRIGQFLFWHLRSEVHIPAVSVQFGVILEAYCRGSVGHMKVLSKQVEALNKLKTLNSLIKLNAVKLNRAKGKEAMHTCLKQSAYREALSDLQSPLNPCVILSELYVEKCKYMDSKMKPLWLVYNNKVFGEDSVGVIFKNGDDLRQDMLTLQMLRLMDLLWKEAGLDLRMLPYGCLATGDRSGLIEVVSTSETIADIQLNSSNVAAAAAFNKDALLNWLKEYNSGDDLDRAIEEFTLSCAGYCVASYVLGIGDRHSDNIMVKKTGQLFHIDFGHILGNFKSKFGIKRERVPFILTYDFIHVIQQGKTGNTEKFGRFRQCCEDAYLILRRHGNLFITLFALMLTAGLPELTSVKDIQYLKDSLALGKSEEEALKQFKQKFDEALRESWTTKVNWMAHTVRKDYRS
Chain of p110β/p85α (P27986 2-724 partner): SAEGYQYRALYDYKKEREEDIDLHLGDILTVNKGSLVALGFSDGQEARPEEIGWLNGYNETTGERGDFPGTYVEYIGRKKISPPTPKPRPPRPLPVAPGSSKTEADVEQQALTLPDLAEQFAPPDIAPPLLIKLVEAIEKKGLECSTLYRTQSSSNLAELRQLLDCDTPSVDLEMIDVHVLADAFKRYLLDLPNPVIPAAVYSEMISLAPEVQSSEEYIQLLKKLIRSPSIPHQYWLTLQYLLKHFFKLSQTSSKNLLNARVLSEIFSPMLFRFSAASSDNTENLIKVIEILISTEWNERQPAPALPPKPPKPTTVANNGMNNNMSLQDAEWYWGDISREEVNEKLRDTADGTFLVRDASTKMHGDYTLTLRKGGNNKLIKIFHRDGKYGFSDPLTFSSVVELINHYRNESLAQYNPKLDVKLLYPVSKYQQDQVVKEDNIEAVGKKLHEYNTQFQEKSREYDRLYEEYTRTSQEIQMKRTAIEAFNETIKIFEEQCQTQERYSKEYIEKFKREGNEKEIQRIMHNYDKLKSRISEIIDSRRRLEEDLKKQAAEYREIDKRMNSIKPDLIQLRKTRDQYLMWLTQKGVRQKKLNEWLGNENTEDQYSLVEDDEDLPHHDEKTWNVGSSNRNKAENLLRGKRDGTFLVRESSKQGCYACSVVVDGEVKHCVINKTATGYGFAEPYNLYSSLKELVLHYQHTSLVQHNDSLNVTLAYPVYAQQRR
Chain of p110δ/p85α (O00329 whole entry): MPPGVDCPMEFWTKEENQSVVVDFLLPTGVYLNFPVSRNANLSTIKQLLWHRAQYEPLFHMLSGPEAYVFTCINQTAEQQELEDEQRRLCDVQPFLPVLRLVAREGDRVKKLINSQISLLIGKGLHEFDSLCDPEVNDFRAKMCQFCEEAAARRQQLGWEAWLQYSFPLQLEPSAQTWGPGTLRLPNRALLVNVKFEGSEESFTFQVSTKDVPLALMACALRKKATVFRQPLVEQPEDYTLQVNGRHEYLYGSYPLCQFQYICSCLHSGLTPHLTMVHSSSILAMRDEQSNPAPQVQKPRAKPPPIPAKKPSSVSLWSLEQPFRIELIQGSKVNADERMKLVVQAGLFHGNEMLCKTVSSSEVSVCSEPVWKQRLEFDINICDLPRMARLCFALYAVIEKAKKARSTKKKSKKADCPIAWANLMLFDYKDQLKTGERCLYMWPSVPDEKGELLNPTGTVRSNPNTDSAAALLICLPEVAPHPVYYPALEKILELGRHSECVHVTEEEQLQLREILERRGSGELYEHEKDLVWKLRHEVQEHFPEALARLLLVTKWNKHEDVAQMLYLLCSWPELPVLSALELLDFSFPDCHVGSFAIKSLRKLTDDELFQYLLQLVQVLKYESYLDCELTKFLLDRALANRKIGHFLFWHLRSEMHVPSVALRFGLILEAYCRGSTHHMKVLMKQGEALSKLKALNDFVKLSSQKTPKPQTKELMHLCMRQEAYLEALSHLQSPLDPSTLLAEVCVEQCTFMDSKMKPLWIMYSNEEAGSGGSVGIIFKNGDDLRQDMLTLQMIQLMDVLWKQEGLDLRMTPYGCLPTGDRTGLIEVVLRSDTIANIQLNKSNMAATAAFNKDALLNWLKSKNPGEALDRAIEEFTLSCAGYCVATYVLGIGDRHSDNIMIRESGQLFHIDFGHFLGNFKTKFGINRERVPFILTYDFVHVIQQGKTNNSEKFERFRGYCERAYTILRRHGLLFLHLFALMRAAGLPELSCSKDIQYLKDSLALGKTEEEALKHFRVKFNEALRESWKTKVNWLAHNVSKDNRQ
Chain of p110δ/p85α (P27986 whole entry partner): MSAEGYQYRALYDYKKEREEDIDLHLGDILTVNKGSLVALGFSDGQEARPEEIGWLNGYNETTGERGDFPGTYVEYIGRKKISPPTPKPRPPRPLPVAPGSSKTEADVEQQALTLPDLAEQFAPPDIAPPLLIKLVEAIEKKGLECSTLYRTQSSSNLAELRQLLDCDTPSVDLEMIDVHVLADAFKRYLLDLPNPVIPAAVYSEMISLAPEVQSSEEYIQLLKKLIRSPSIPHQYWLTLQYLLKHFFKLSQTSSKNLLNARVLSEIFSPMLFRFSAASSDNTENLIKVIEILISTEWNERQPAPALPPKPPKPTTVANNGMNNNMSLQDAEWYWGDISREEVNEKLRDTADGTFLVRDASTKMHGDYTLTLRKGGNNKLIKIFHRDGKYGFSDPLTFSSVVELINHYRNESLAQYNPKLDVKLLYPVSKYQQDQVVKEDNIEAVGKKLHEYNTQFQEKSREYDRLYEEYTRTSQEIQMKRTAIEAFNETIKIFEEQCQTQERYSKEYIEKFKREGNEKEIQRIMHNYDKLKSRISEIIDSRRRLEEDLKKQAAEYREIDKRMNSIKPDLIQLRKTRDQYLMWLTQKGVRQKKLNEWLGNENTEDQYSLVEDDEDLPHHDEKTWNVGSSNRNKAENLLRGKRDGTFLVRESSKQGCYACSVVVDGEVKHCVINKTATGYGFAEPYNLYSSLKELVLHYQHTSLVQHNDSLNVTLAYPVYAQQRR

Consider `N#Cc1c[nH]c2ncnc(N3CC[C@H]3c3nn4cccc4c(=O)n3-c3ccccc3)c12` [Compound 6], for which, on p110β/p85α, the “PI3Kβ IH % @ 1 uM” value is given as 28.0%. The “PI3Kγ IH % @ 1 uM” value at p110γ stood at 58.6%. Besides, the “PI3Kδ IH % @ 1 uM” value at p110δ/p85α came out at 91.5%. Further, on p110α/p85α, the “PI3Kα IH % @ 1 uM” value is given as −10.6%.
Turning to `O=c1c2cccn2nc([C@@H]2CCN2c2ncnc3[nH]cnc23)n1-c1ccccc1` [Compound 7], the “PI3Kβ IH % @ 1 uM” value on p110β/p85α worked out at 17.7%. The “PI3Kγ IH % @ 1 uM” value on p110γ was 16.6%. For the same compound, the “PI3Kδ IH % @ 1 uM” value on p110δ/p85α was determined as 50.4%. Besides, the “PI3Kα IH % @ 1 uM” value at p110α/p85α was −18.6%.
For the compound `N#Cc1c[nH]c2ncnc(N3CCC[C@H]3c3nn4ccc(Cl)c4c(=O)n3-c3ccccc3)c12` [Compound 25], at p110β/p85α, the “PI3Kβ IH % @ 1 uM” value worked out at 93.7% and the IC50 is 0.034 µM. The “PI3Kγ IH % @ 1 uM” value at p110γ stood at 98.6%. Also, at p110δ/p85α, the “PI3Kδ IH % @ 1 uM” value was over 100% and the IC50 worked out at 0.001 µM. Moreover, at p110α/p85α, the “PI3Kα IH % @ 1 uM” value was found to be 80.9%.
With `O=c1c2c(Cl)ccn2nc([C@@H]2CCCN2c2ncnc3[nH]cnc23)n1-c1ccccc1` [Compound 26], at p110β/p85α, the “PI3Kβ IH % @ 1 uM” value was 88.7% and the IC50 stood at 0.091 µM. Also, the “PI3Kγ IH % @ 1 uM” value at p110γ is on record as 93.3%. Further, on p110δ/p85α, the “PI3Kδ IH % @ 1 uM” value is recorded as over 100% and the half-maximal inhibitory concentration (IC50) was 0.002 µM. For the same compound, the “PI3Kα IH % @ 1 uM” value on p110α/p85α is recorded as 20.3%.
Take `N#Cc1c[nH]c2ncnc(N3CC[C@H]3c3nn4ccc(Cl)c4c(=O)n3-c3ccccc3)c12` [Compound 28]: the “PI3Kβ IH % @ 1 uM” value on p110β/p85α worked out at 49.9%. For the same compound, at p110γ, the “PI3Kγ IH % @ 1 uM” value is given as 92.2% and the IC50 turned out to be 0.032 µM. Also, at p110δ/p85α, the “PI3Kδ IH % @ 1 uM” value is given as over 100% and the IC50 is 0.014 µM. Moreover, at p110α/p85α, the “PI3Kα IH % @ 1 uM” value was −0.3%.
For `O=c1c2c(Cl)ccn2nc([C@@H]2CCN2c2ncnc3[nH]cnc23)n1-c1ccccc1` [Compound 29], on p110β/p85α, the “PI3Kβ IH % @ 1 uM” value was 18.5%. Moreover, the “PI3Kγ IH % @ 1 uM” value on p110γ is on record as 72.5%. Further, on p110δ/p85α, the “PI3Kδ IH % @ 1 uM” value was over 100% and the IC50 amounted to 0.084 µM. Besides, the “PI3Kα IH % @ 1 uM” value at p110α/p85α was −1.5%.
Regarding `Nc1ncnc(N2CC[C@H]2c2nn3ccc(Cl)c3c(=O)n2-c2ccccc2)c1Cl` [Compound 30], on p110β/p85α, the “PI3Kβ IH % @ 1 uM” value amounted to 51.3%. Also, on p110γ, the “PI3Kγ IH % @ 1 uM” value is given as 74.1% and the IC50 was found to be 0.094 µM. Further, on p110δ/p85α, the “PI3Kδ IH % @ 1 uM” value was over 100% and the IC50 was determined as 0.009 µM. For the same compound, on p110α/p85α, the “PI3Kα IH % @ 1 uM” value was −20.5%.
In the case of `N#Cc1c(N)ncnc1N1CC[C@H]1c1nn2ccc(Cl)c2c(=O)n1-c1ccccc1` [Compound 31], the “PI3Kβ IH % @ 1 uM” value at p110β/p85α is 35.3%. Besides, at p110γ, the “PI3Kγ IH % @ 1 uM” value is 81.5% and the IC50 was 0.153 µM. In addition, at p110δ/p85α, the “PI3Kδ IH % @ 1 uM” value was over 100% and the IC50 is 0.016 µM. In addition, the “PI3Kα IH % @ 1 uM” value on p110α/p85α was −17.7%.
As for `N#Cc1c(N)ncnc1N1CCC[C@H]1c1nn2ccc(Cl)c2c(=O)n1-c1ccccc1` [Compound 32], at p110β/p85α, the “PI3Kβ IH % @ 1 uM” value is 96.7% and the IC50 is 0.013 µM. Besides, on p110γ, the “PI3Kγ IH % @ 1 uM” value is 94.8% and the IC50 turned out to be 0.008 µM. For the same compound, at p110δ/p85α, the “PI3Kδ IH % @ 1 uM” value was over 100% and the IC50 is 0.001 µM. Moreover, the “PI3Kα IH % @ 1 uM” value on p110α/p85α is 54.5%.
For `COc1cccc(-n2c([C@@H]3CCN3c3ncnc4[nH]cc(C#N)c34)nn3ccc(Cl)c3c2=O)c1` [Compound 34], on p110β/p85α, the “PI3Kβ IH % @ 1 uM” value amounted to 12.4%. Further, at p110γ, the “PI3Kγ IH % @ 1 uM” value is 84.6% and the concentration for half-maximal inhibition (IC50) stood at 0.203 µM. Besides, on p110δ/p85α, the “PI3Kδ IH % @ 1 uM” value stood at 96.8% and the IC50 was found to be 0.029 µM. Further, the “PI3Kα IH % @ 1 uM” value on p110α/p85α is recorded as −2.5%.
Consider `COc1cccc(-n2c([C@@H]3CCN3c3ncnc(N)c3C#N)nn3ccc(Cl)c3c2=O)c1` [Compound 35], for which the “PI3Kβ IH % @ 1 uM” value on p110β/p85α stood at 24.7%. Also, the “PI3Kγ IH % @ 1 uM” value at p110γ is on record as 61.2%. On p110δ/p85α, the “PI3Kδ IH % @ 1 uM” value came out at 94.1% and the IC50 was found to be 0.057 µM. On p110α/p85α, the “PI3Kα IH % @ 1 uM” value was −6.6%.

The term IC50 denotes the point on the concentration scale where inhibition reaches its midpoint.
